Common to all, as to type: physicochemical
Data set [1] in a line: Solubility in ethyl acetate, visual check for undissolved residue. The conditions noted are these: 20.0 mg in 2 mL ethyl acetate, stirred at 40° C. for 10 minutes; no residue means solubility 1% by mass or more. Here is the method: The solubility of each compound of Examples 1 to 3 and Comparative Examples 1 to 3 in an organic solvent was measured according to the following procedure.
20.0 mg of the compound was weighed and placed in a container, 2 mL of ethyl acetate was added thereto, and the mixture was stirred at 40° C. for 10 minutes. After the stirring, the presence or absence of undissolved residue of the compound was visually observed. The fact that no undissolved residue of the compound was observed means that the solubility of the compound was 1% by mass or more.

Data set [2] can be described thus: Absorption spectrum of the compound in chloroform solution (spectral characteristics). The note with it: 5×10^−6 mol/L, 1 cm cell; for ε (molar absorption coefficient): at λmax. Here is the method: An absorption spectrum of each of the compounds of Examples 1 to 3 and Comparative Examples 1 to 3 was measured according to the following procedure, and the maximal absorption wavelength ([…]), the molar absorption coefficient ([…]), and the width of the absorption spectrum at an absorbance corresponding to ½ of the maximum absorbance (that is, the half-width) were obtained.
Using chloroform as a solvent, a solution in which the compound was dissolved was prepared such that the concentration of the compound in the chloroform was 5×10^−6 mol/L (liter; the same applies hereinafter). Each prepared solution was put into a 1 cm cell, and an absorption spectrum was measured using a spectrophotometer [product name: U-4100, manufactured by Hitachi, Ltd.] as a measurement device.

Data set [3] in a line: Solubility in the organic solvents of the polymerizable composition. The note with it: solvent (1) propylene glycol monomethyl ether acetate and solvent (2) cyclohexanone, polymerizable composition P4. An excerpt: A polymerizable composition P4 was obtained in the same manner as in the preparation of the polymerizable composition P1, except that, in the preparation of the polymerizable composition P1, the “exemplary compound 1-13” was changed to the “comparative compound R-3”.
A cured film E4 was obtained in the same manner as in the production of the cured film E1, except that, in the production of the cured film E1, the “polymerizable composition P1” was changed to the “polymerizable composition P4”. However, since the “comparative compound R-3” had extremely low solubility in the organic solvent [that is, the solvent (1) and the solvent (2)], the obtained photocured film D4 and cured film E4 were not films that could be evaluated for the spectral characteristics, so that the following evaluation tests were not performed.

Take `CCN(CC)c1ccc(C2=C([O-])/C(=C3\C=CC(=[N+](CC)CC)C=C3NC(C)=O)C2=O)c(NC(C)=O)c1` [R-3]: in data set [1], the “Solubility in ethyl acetate (presence or absence of undissolved residue)” value was “not completely dissolved”. Further, in data set [2], the “Half-width (width of absorption spectrum at ½ of maximum absorbance)” value was 27 nm, the “λmax (maximal absorption wavelength)” value stood at 676 nm and the “ε (molar absorption coefficient)” value is reported as 356,000 L/(mol · cm). For the same molecule, the “Solubility in the organic solvent” value in data set [3] is “extremely low”.
With `C=C(C)C(=O)OCCOC(=O)C1=C(C)/C(=C2\C(=O)C(c3[nH]c(C)c(CC)c3C)=C2O)N=C1C` [Exemplary compound 1-13], in data set [1], the “Solubility in ethyl acetate (presence or absence of undissolved residue)” value is recorded as “completely dissolved”. Besides, in data set [2], the “Half-width (width of absorption spectrum at ½ of maximum absorbance)” value is 25 nm, the “λmax (maximal absorption wavelength)” value was 556 nm and the “ε (molar absorption coefficient)” value was 185,000 L/(mol · cm).
The corresponding values for `CCC1=C(C)/C(=C2\C(=O)C(c3[nH]c(C)c(CC)c3C)=C2O)N=C1C` [R-1] are “not completely dissolved”, 23 nm, 564 nm and 238,000 L/(mol · cm).
The corresponding values for `C=C(C)C(=O)OCCN(CCOC(=O)C(=C)C)c1ccc(C2=C([O-])/C(=C3\C=CC(=[N+](CCOC(=O)C(=C)C)CCOC(=O)C(=C)C)C=C3NC(C)=O)C2=O)c(NC(C)=O)c1` [R-2] are “not completely dissolved”, 27 nm, 667 nm and 363,000 L/(mol · cm).
The corresponding values for `C=Cc1ccc(Cn2c(C)c(CC)c(C)c2C2=C([O-])/C(=C3/C(C)=C(CC)C(C)=[N+]3Cc3ccc(C=C)cc3)C2=O)cc1` [Exemplary compound 1-30] are “completely dissolved”, 29 nm, 591 nm and 158,000 L/(mol · cm).
